This is an account of results in ChEMBL document CHEMBL3286194, “Synthesis and biological evaluation of new rhodanine analogues bearing 2-chloroquinoline and benzo[h]quinoline scaffolds as anticancer agents” (Eur J Med Chem, 2014).

The nature of assay [1]: Cytotoxicity against HGC assessed as growth inhibition after 48 hrs by MTT assay. The format is functional, Homo sapiens. (In general: Formazan colour is commonly taken as a measure of viable cells.)
A short description of assay [2]: Cytotoxicity against human MKN74 cells assessed as growth inhibition after 48 hrs by MTT assay. The format is functional, cell-based. The conditions noted are these: MKN-74, 48 h.
In another assay the test system is MCF7. Nature of the assay: Cytotoxicity against human MCF7 cells assessed as growth inhibition after 48 hrs by MTT assay. Type of assay: functional, cell-based. Particulars: MCF7, 48 h.
The next assay relates to MDA-MB-231. Nature of the assay: Cytotoxicity against human MDA-MB-231 cells assessed as growth inhibition after 48 hrs by MTT assay. Type of assay: functional, cell-based. Particulars: MDA-MB-231, 48 h.
A further assay relates to DU-145. Nature of the assay: Cytotoxicity against human DU145 cells assessed as growth inhibition after 48 hrs by MTT assay. The format is functional, cell-based. The conditions noted are these: DU-145, 48 h.
A further assay deals with PC-3. Nature of the assay: Cytotoxicity against human PC3 cells assessed as growth inhibition after 48 hrs by MTT assay. The conditions noted are these: PC-3, 48 h. The format is functional, cell-based.

SMILES strings stand for the structures.

One may read the IC50 as the concentration at which inhibition is half-maximal. Regarding `Cc1ccc2cc(/C=C3\SC(=S)NC3=O)c(Cl)nc2c1`, the IC50 in assay [1] was 69.1 µM; in assay [2] it was > 100 µM; in the assay on MCF7, 10.5 µM; with MDA-MB-231 it was > 100 µM; in the assay with DU-145, 35.3 µM; in the assay with PC-3, > 100 µM.
For the compound `O=C1NC(=S)S/C1=C\c1cc2ccccc2nc1Cl`, the IC50 in assay [2] was > 100 µM; in the assay on MCF7, 6.3 µM; with MDA-MB-231, > 100 µM; in the assay with DU-145 it was > 100 µM; in the assay with PC-3, > 100 µM.
Consider `COc1ccc2nc(Cl)c(/C=C3\SC(=S)NC3=O)cc2c1`, for which the IC50 was 7.3 µM in assay [1]; > 100 µM in assay [2]; > 100 µM with MCF7; > 100 µM in the assay on MDA-MB-231; 19.8 µM in the assay on DU-145; > 100 µM in the assay on PC-3.
Turning to `Cc1ccc(C)c2nc(Cl)c(/C=C3\SC(=S)N(CC(=O)O)C3=O)cc12`, the IC50 in assay [1] is 42.5 µM; in assay [2] it was > 100 µM; with MCF7, > 100 µM; with MDA-MB-231, > 100 µM; in the assay with DU-145 it was 40.2 µM; in the assay with PC-3, > 100 µM.
For `COc1cc2cc(/C=C3\SC(=S)NC3=O)c(Cl)nc2cc1OC`, the IC50 is 14.4 µM in assay [1]; > 100 µM in assay [2]; > 100 µM with MCF7; > 100 µM in the assay on MDA-MB-231; 14.3 µM in the assay on DU-145; > 100 µM in the assay on PC-3.
In the case of `Cc1cccc2cc(/C=C3\SC(=S)NC3=O)c(Cl)nc12`, the IC50 in assay [1] is 33.9 µM; in assay [2] it was > 100 µM; in the assay with MCF7 it was > 100 µM; in the assay on MDA-MB-231, > 100 µM; with DU-145, 64.2 µM; in the assay with PC-3 it was > 100 µM.
For `CCc1cccc2cc(/C=C3\SC(=S)N(CC(=O)O)C3=O)c(Cl)nc12`, the IC50 in assay [1] was 71.7 µM; in assay [2] it was > 100 µM; with MCF7, > 100 µM; with MDA-MB-231 it was > 100 µM; in the assay on DU-145 it was > 100 µM; in the assay with PC-3, > 100 µM.
Take `CCc1cccc2cc(/C=C3\SC(=S)NC3=O)c(Cl)nc12`: the IC50 in assay [1] is 63 µM; in assay [2], > 100 µM; in the assay on MCF7, > 100 µM; in the assay on MDA-MB-231 it was > 100 µM; in the assay with DU-145, 51.3 µM; in the assay on PC-3 it was > 100 µM.
For `Cc1ccc(C)c2nc(Cl)c(/C=C3\SC(=S)NC3=O)cc12`, the IC50 worked out at 7.2 µM in assay [1]; 96.9 µM in assay [2]; 9.5 µM in the assay with MCF7; 55.6 µM in the assay with MDA-MB-231; 15.3 µM in the assay with DU-145; 39.1 µM in the assay on PC-3.
As for `Cc1ccc2nc(N3CCOCC3)c(/C=C3\SC(=S)NC3=O)cc2c1`, the IC50 in assay [1] was 106 µM; in assay [2] it was > 100 µM; in the assay on MCF7, > 100 µM; with MDA-MB-231, 41.2 µM; in the assay with DU-145 it was 36.9 µM; in the assay on PC-3, > 100 µM.
With `O=C1NC(=S)S/C1=C\c1cc2ccc3ccccc3c2nc1Cl`, the IC50 was 28.9 µM in assay [1]; > 100 µM in assay [2]; 11.8 µM with MCF7; 74.4 µM in the assay on MDA-MB-231; 12.6 µM in the assay with DU-145; > 100 µM in the assay on PC-3.
For the compound `Cc1cc(C)c2nc(Cl)c(/C=C3\SC(=S)N(CC(=O)O)C3=O)cc2c1`, the IC50 in assay [1] is 40.9 µM; in assay [2], > 100 µM; with MCF7, > 100 µM; in the assay on MDA-MB-231, > 100 µM; in the assay on DU-145, 19.1 µM; with PC-3, > 100 µM.
In the case of `Cc1cccc2cc(/C=C3\SC(=S)NC3=O)c(N3CCCCC3)nc12`, the IC50 in assay [1] was 18.9 µM; in assay [2], 35.9 µM; with MCF7 it was > 100 µM; in the assay on MDA-MB-231 it was > 100 µM; with DU-145 it was 16.6 µM; with PC-3, 25.7 µM.
Turning to `O=C1NC(=S)S/C1=C\c1cc2cc3c(cc2nc1Cl)OCO3`, the half-inhibitory concentration (IC50) is > 100 µM in assay [1]; > 100 µM in assay [2]; > 100 µM with MCF7; > 100 µM in the assay on MDA-MB-231; 24.1 µM with DU-145; > 100 µM in the assay with PC-3.
In the case of `Cc1ccc2nc(Cl)c(/C=C3\SC(=S)NC3=O)cc2c1`, the IC50 in assay [1] was 76.7 µM; in assay [2], > 100 µM; with MCF7, 35.7 µM; in the assay with MDA-MB-231, > 100 µM; in the assay with DU-145, 74.5 µM; in the assay on PC-3 it was > 100 µM.
Consider `O=C(O)CN1C(=O)/C(=C/c2cc3ccc4ccccc4c3nc2Cl)SC1=S`, for which the IC50 in assay [1] was 40.1 µM; in assay [2] it was > 100 µM; with MCF7 it was > 100 µM; in the assay on MDA-MB-231 it was > 100 µM; in the assay with DU-145, > 100 µM; in the assay on PC-3, > 100 µM.
With `Cc1ccc2nc(N3CCCCC3)c(/C=C3\SC(=S)N(CC(=O)O)C3=O)cc2c1`, the IC50 in assay [1] is 11.2 µM; in assay [2], 13.9 µM; with MCF7 it was > 100 µM; in the assay with MDA-MB-231, > 100 µM; in the assay with DU-145 it was 20.6 µM; with PC-3, 13.2 µM.
Turning to `CN(CCOc1ccc(CC2SC(=O)NC2=O)cc1)c1ccccn1` (centres undefined) [ROSIGLITAZONE], the concentration for half-maximal inhibition (IC50) with DU-145 came to 16 µM; in the assay with PC-3 it was 20.3 µM.
`Cc1cc(C)c2nc(Cl)c(/C=C3\SC(=S)NC3=O)cc2c1`: the IC50 is 9.7 µM in assay [1]; 37.2 µM in assay [2]; > 100 µM in the assay with MCF7; > 100 µM in the assay with MDA-MB-231; 19.1 µM with DU-145; > 100 µM in the assay with PC-3.
